In US12060347B2 (BRISTOL-MYERS SQUIBB COMPANY, priority 2016, dated 2024):

target: T1, human PAR4 (Homo sapiens, UniProt Q96RI0); test: PAR4 FLIPR assay: antagonism of agonist-peptide-induced calcium mobilization in PAR4-expressing HEK293 cells; assay type: cell-based; settings: H-Ala-Phe(4-F)-[…]NH2-induced intracellular calcium mobilization, 11-point curves
T1 construct: expressed in transfected cells; host or cells: HEK293 PAR4 Clone 1.2A (BMS Arctic ID 383940)
T1 sequence (Q96RI0 18-385): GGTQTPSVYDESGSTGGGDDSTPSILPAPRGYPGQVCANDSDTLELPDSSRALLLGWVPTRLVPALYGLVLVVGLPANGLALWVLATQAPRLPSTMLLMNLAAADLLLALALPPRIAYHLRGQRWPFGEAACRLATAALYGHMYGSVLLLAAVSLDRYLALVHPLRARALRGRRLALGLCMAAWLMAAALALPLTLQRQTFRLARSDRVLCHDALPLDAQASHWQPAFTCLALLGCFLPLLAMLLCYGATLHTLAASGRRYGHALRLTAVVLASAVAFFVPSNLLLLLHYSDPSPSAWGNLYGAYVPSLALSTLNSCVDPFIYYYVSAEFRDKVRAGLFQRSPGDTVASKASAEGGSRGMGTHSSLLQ

Row | IC50 | Compound
1 | 3.3 nM | COc1cnc2c(-c3nc4c(C)cc(OCCNS(=O)(=O)c5ccc(F)cc5)cc4s3)cc(C)cc2n1 [Example 26, 4-fluoro-N-(2-((2-(2-methoxy-7-methylquinoxalin-5-yl)-4-methylbenzo[d]thiazol-6-yl)oxy)ethyl)benzenesulfonamide]
2 | 3.3 nM | COCc1ccc2nc(-c3cc(C)cc4nc(COC)cnc34)sc2c1 [Example 309, 6-(methoxymethyl)-2-(2-(methoxymethyl)-7-methylquinoxalin-5-yl)benzo[d]thiazole]
3 | 0.8 nM | COCc1cnc2c(-c3nc4c(Cl)c(F)c(OCC(=O)OC)cc4s3)cc(C)cc2n1 [Example 292, methyl 2-((4-chloro-5-fluoro-2-(2-(methoxymethyl)-7-methylquinoxalin-5-yl)benzo[d]thiazol-6-yl)oxy)acetate]
4 | 2 nM | COCc1cnc2c(-c3nc4c(C(O)c5cccnc5)cc(OC)cc4s3)cc(C)cc2n1 (stereo not shown) [Example 168, (6-methoxy-2-(2-(methoxymethyl)-7-methylquinoxalin-5-yl)benzo[d]thiazol-4-yl) (pyridin-3-yl)methanol]
5 | 0.8 nM | COCc1cnc2c(-c3nc4c(C)cc(OCCNS(=O)(=O)c5ccccc5)cc4s3)cc(C)cc2n1 [Example 95, N-(2-((2-(2-(methoxymethyl)-7-methylquinoxalin-5-yl)-4-methylbenzo[d]thiazol-6-yl)oxy)ethyl)benzenesulfonamide]
6 | 7.7 nM | COc1cnc2c(-c3nc4c(C)cc(OCC(=O)NCc5ccccc5)cc4s3)cc(C)cc2n1 [Example 36, N-benzyl-2-((2-(2-methoxy-7-methylquinoxalin-5-yl)-4-methylbenzo[d]thiazol-6-yl)oxy)acetamide]
7 | 4.3 nM | COCc1cnc2c(-c3nc4c(F)cccc4s3)cc(C)cc2n1 [Example 273, 4-fluoro-2-(2-(methoxymethyl)-7-methylquinoxalin-5-yl)benzo[d]thiazole]
8 | 0.9 nM | COCc1cnc2c(-c3nc4c(Cl)cc(OCCNS(=O)(=O)c5cccc(F)c5)cc4s3)cc(C)cc2n1 [Example 102, N-(2-(4-chloro-2-(2-(methoxymethyl)-7-methylquinoxalin-5-yl)benzo[d]thiazol-6-yloxy)ethyl)-3-fluorobenzenesulfonamide]

Second part, the molecule before the results:

Row | Compound | IC50
9 | CCOc1cnc2c(-c3nc4cc(F)c(O[C@@H](C)[C@@H](C)OC(=O)Nc5cnc([C@@H](C)O)nc5)cc4s3)cc(C)cc2n1 [Example 536, (2R,3S)-3-((2-(2-ethoxy-7-methylquinoxalin-5-yl)-5-fluorobenzo[d]thiazol-6-yl)oxy) butan-2-yl (2-((R)-1-hydroxyethyl)pyrimidin-5-yl)carbamate] | 4.9 nM
10 | COc1cnc2c(-c3nc4cc(F)c(OC[C@@H](C)OC(=O)Nc5cnc(OC[C@H](C)O)nc5)nc4s3)cc(C)cc2n1 [Example 701, (R)-1-((6-fluoro-2-(2-methoxy-7-methylquinoxalin-5-yl)thiazolo[5,4-b]pyridin-5-yl)oxy) propan-2-yl (2-((S)-2-hydroxypropoxy)pyrimidin-5-yl)carbamate] | 2.7 nM
11 | CCOc1cnc2c(-c3nc4cc(F)c(O[C@@H](C)[C@@H](C)OC(=O)Nc5cnc(CO)nc5)nc4s3)cc(C)cc2n1 [Example 816] | 10 nM
12 | Cc1cc(-c2nc3cccc(NC(=O)OCc4ccccc4)c3s2)c2ncc(OC(F)F)nc2c1 [Example 76, benzyl 2-(2-(difluoromethoxy)-7-methylquinoxalin-5-yl)benzo[d]thiazol-7-ylcarbamate] | 2.1 nM
13 | COc1cnc2c(-c3nc4cc(F)c(O[C@@H](C)[C@@H](C)OC(=O)Nc5cncc(F)c5)nc4s3)cc(C)cc2n1 [Example 714, (2R,3S)-3-((6-fluoro-2-(2-methoxy-7-methylquinoxalin-5-yl)thiazolo[5,4-b]pyridin-5-yl)oxy)butan-2-yl (5-fluoropyridin-3-yl)carbamate] | 1.2 nM
14 | COc1cnc2c(-c3nc4cc(F)c(O[C@@H](C)[C@@H](C)OC(=O)Nc5ccnnc5)cc4s3)cc(C)cc2n1 [Example 413, (2R,3S)-3-((5-fluoro-2-(2-methoxy-7-methylquinoxalin-5-yl)benzo[d]thiazol-6-yl)oxy)butan-2-yl pyridazin-4-ylcarbamate] | 3.4 nM
15 | COc1ccc2oc(-c3cc(C)cc4nc(OC(F)F)cnc34)cc2c1OC [Example 6, 2-(difluoromethoxy)-5-(4,5-dimethoxybenzofuran-2-yl)-7-methylquinoxaline] | 130 nM
16 | COCc1cnc2c(-c3nc4c(C(O)C5CCC5)cc(OC)cc4s3)cc(C)cc2n1 (stereo not shown) [Example 166, Cyclobutyl(6-methoxy-2-(2-(methoxymethyl)-7-methylquinoxalin-5-yl)benzo[d]thiazol-4-yl)methanol] | 2.8 nM
17 | COc1cnc2c(-c3nc4c(Cl)c(F)c(OCCOC(=O)Nc5ccc(F)nc5)cc4s3)cc(C)cc2n1 [Example 304, 2-((4-chloro-5-fluoro-2-(2-methoxy-7-methylquinoxalin-5-yl)benzo[d]thiazol-6-yl)oxy)ethyl (6-fluoropyridin-3-yl)carbamate] | 2.3 nM
18 | COc1cc(C(O)C2(C)CCCCC2)c2nc(-c3cc(C)cc4nc(OC)cnc34)sc2c1 (stereo not shown) [Example 672, (6-methoxy-2-(2-methoxy-7-methylquinoxalin-5-yl)benzo[d]thiazol-4-yl)(1-methylcyclohexyl)methanol] | 1.9 nM
19 | COc1cnc2c(-c3nc4cc(F)c(O[C@@H](C)[C@@H](C)OC(=O)Nc5ccc(C)nc5)cc4s3)cc(Cl)cc2n1 [Example 822, (2R,3S)-3-((2-(7-chloro-2-methoxyquinoxalin-5-yl)-5-fluorobenzo[d]thiazol-6-yl)oxy)butan-2-yl (6-methylpyridin-3-yl)carbamate] | 1.6 nM
20 | COc1cnc2c(-c3nc4cc(F)c(OC[C@@H](C)OC(=O)Nc5cnc(OC)nc5)cc4s3)cc(C)cc2n1 [Example 408, (R)-1-((5-fluoro-2-(2-methoxy-7-methylquinoxalin-5-yl)benzo[d]thiazol-6-yl)oxy)propan-2-yl (2-methoxypyrimidin-5-yl)carbamate] | 3.2 nM
21 | COc1cc(C(O)C2CC2)c2nc(-c3cc(C)cc4nc(OC)cnc34)sc2c1 (stereo not shown) [Example 160, Cyclopropyl(6-methoxy-2-(2-methoxy-7-methylquinoxalin-5-yl)benzo[d]thiazol-4-yl) methanol] | 1.2 nM
22 | COCc1cnc2c(-c3cc4cc(OC)ccc4o3)cc(C)cc2n1 [Example 94, 5-(5-methoxybenzofuran-2-yl)-2-(methoxymethyl)-7-methylquinoxaline] | 1.4 nM
23 | COc1cnc2c(-c3nc4c(C)cc(OCCOC(=O)Nc5ccncc5)cc4s3)cc(C)cc2n1 [Example 113, 2-(2-(2-methoxy-7-methylquinoxalin-5-yl)-4-methylbenzo[d]thiazol-6-yloxy)ethyl pyridin-4-ylcarbamate] | 3 nM
24 | COCc1cnc2c(-c3nc4c(C)cc(OC)cc4s3)cc(C(F)(F)F)cc2n1 [Example 208, 6-methoxy-2-(2-(methoxymethyl)-7-(trifluoromethyl)quinoxalin-5-yl)-4-methylbenzo[d]thiazole] | 1.1 nM
25 | COc1cnc2c(-c3nc4c(Cl)c(F)c(O[C@@H](C)[C@@H](C)OC(=O)Nc5cnc(C)c(C)c5)cc4s3)cc(Cl)cc2c1 [Example 800, (2R,3S)-3-((4-chloro-2-(6-chloro-3-methoxyquinolin-8-yl)-5-fluorobenzo[d]thiazol-6-yl)oxy)butan-2-yl (5,6-dimethylpyridin-3-yl)carbamate] | 2.5 nM
